What was measured:
[1] = target: Vascular endothelial growth factor receptor 2 (Homo sapiens, UniProt P35968); type: functional
[2] = target: T1, 5-hydroxytryptamine receptor 3A (Homo sapiens, UniProt P46098); type: functional
T1 sequence (P46098 whole entry): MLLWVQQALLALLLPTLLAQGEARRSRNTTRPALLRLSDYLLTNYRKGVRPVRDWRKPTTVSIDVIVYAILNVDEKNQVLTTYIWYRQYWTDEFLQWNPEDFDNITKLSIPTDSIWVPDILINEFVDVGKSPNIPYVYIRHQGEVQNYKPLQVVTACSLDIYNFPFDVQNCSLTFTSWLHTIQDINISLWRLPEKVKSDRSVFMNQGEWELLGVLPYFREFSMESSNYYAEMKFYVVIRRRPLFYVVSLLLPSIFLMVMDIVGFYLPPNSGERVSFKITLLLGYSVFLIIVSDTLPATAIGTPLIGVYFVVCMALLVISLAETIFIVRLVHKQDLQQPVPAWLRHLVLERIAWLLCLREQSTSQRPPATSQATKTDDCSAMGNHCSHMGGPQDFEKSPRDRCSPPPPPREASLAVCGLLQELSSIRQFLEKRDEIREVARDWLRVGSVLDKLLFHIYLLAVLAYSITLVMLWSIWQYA

[3] = target: T2, 5-hydroxytryptamine receptor 2B (Homo sapiens, UniProt P41595); type: functional, cell-based
Adenosine receptor A2a = Adenosine receptor A2a (Homo sapiens, UniProt P29274)
[4] = target: T3, Type-1 angiotensin II receptor (Homo sapiens, UniProt P30556)
T3 sequence (P30556 whole entry): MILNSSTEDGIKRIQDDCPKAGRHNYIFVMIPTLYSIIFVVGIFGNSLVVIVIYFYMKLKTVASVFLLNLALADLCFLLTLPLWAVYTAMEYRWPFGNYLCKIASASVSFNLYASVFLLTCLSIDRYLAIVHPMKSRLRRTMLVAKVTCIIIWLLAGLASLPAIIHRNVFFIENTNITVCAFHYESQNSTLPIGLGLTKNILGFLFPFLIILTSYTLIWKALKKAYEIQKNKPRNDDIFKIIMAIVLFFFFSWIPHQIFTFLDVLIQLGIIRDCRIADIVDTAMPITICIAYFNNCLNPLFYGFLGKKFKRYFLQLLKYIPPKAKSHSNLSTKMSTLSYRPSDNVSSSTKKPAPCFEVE

[5] = target: T4, Alpha-2C adrenergic receptor (Homo sapiens, UniProt P18825); type: functional
T4 sequence (P18825 whole entry): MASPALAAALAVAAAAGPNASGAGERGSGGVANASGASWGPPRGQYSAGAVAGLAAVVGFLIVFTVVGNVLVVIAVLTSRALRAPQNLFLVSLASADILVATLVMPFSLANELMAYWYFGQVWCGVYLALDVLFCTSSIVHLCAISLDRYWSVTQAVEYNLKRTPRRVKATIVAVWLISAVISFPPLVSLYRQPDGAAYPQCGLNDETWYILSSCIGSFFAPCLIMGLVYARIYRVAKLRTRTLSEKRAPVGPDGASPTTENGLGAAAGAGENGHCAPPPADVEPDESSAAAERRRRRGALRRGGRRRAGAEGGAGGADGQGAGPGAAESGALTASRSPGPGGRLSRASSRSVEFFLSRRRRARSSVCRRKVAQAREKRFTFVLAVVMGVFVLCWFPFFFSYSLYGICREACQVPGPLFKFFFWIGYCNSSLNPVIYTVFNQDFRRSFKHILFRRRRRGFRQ

[6] = target: T5, 5-hydroxytryptamine receptor 1A (Homo sapiens, UniProt P08908); type: functional, cell-based
T5 sequence (P08908 whole entry): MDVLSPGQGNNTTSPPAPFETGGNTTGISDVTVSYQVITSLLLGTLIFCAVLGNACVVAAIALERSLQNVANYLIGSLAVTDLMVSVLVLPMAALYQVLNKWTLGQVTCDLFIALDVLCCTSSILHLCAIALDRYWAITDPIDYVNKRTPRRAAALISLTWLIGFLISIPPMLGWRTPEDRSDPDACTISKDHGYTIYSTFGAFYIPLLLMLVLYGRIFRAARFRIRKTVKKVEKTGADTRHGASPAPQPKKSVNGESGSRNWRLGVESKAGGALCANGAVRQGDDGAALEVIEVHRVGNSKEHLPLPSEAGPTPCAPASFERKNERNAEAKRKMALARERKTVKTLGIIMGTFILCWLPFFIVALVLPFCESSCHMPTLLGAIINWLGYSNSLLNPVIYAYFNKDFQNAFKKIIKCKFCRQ

Thromboxane A2 receptor = target: T6, Thromboxane A2 receptor (Homo sapiens, UniProt P21731)
T6 sequence (P21731 whole entry): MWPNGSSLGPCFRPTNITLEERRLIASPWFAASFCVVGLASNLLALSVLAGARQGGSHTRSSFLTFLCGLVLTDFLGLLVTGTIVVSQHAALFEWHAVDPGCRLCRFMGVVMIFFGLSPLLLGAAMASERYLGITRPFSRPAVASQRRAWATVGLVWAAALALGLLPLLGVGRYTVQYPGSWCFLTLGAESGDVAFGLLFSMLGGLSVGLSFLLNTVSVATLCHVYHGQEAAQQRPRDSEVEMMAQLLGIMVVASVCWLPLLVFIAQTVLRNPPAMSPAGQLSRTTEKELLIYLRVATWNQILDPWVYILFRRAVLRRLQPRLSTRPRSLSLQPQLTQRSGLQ

[7] = target: 3',5'-cyclic-AMP phosphodiesterase 4D (Homo sapiens, UniProt Q08499); type: functional
[8] = target: T7, Neuropeptide Y receptor type 1 (Homo sapiens, UniProt P25929)
T7 sequence (P25929 whole entry): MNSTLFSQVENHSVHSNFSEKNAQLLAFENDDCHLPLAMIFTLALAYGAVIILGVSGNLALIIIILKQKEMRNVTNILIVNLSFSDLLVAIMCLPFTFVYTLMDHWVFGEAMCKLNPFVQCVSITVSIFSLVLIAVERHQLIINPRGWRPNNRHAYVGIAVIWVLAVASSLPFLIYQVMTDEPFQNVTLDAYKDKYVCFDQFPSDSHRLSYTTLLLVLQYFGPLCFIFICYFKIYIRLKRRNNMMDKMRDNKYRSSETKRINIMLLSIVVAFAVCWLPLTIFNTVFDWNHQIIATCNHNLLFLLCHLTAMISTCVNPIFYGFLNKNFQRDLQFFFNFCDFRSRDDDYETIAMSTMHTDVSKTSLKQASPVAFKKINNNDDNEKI

Motilin receptor = Motilin receptor (Homo sapiens, UniProt O43193)
D(3) dopamine receptor = D(3) dopamine receptor (Homo sapiens, UniProt P35462)
[9] = target: T2, 5-hydroxytryptamine receptor 2B; type: functional, cell-based; remark: listed apart in the source
Also: assay procedure not described here.

Sequence of Adenosine receptor A2a (P29274 whole entry): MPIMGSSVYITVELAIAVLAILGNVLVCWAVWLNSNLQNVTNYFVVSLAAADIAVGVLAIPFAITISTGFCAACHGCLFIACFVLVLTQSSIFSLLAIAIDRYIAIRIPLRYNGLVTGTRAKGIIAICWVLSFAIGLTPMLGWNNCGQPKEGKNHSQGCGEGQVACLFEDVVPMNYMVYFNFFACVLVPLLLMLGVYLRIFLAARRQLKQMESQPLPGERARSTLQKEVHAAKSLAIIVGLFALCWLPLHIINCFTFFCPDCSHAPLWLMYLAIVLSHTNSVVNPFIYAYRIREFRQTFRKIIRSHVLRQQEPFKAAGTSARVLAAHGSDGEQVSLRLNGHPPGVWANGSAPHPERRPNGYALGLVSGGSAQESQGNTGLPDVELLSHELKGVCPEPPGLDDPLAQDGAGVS
Sequence of D(3) dopamine receptor (P35462 whole entry): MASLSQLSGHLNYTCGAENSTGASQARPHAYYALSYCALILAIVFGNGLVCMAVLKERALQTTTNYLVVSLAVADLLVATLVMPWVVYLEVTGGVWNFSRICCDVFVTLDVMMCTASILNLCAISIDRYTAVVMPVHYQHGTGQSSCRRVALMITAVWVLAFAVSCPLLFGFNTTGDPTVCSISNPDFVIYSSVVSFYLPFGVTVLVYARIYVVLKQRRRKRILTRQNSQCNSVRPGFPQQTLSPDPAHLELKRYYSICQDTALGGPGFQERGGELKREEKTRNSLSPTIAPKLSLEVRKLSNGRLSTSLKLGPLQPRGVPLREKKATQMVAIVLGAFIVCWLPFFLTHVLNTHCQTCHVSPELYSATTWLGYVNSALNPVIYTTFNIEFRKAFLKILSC
Sequence of Motilin receptor (O43193 whole entry): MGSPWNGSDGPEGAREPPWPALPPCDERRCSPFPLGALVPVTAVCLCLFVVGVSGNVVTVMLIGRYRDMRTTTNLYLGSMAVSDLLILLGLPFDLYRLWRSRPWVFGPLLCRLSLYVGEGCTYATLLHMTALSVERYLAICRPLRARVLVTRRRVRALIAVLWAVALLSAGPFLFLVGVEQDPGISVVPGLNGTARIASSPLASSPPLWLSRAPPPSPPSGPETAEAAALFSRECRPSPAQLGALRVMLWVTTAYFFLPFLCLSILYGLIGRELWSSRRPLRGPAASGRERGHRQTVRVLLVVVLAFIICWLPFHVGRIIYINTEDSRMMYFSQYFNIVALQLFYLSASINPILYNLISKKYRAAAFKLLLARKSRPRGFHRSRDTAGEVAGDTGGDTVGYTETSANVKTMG
T2 sequence (P41595 whole entry): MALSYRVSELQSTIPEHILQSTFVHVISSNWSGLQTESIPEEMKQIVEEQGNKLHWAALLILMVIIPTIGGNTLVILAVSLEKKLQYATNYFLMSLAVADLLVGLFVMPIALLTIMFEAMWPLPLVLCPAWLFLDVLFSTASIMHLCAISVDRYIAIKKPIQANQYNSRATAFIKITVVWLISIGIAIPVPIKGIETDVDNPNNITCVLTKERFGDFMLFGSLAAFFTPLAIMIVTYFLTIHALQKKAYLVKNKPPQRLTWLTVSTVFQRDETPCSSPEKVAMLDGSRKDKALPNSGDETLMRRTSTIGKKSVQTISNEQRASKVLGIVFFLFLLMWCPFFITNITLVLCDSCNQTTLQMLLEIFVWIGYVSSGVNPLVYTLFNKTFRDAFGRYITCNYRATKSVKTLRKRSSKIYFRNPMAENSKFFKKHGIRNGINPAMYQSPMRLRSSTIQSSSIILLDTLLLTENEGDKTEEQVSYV
Sequence of 3',5'-cyclic-AMP phosphodiesterase 4D (Q08499 whole entry): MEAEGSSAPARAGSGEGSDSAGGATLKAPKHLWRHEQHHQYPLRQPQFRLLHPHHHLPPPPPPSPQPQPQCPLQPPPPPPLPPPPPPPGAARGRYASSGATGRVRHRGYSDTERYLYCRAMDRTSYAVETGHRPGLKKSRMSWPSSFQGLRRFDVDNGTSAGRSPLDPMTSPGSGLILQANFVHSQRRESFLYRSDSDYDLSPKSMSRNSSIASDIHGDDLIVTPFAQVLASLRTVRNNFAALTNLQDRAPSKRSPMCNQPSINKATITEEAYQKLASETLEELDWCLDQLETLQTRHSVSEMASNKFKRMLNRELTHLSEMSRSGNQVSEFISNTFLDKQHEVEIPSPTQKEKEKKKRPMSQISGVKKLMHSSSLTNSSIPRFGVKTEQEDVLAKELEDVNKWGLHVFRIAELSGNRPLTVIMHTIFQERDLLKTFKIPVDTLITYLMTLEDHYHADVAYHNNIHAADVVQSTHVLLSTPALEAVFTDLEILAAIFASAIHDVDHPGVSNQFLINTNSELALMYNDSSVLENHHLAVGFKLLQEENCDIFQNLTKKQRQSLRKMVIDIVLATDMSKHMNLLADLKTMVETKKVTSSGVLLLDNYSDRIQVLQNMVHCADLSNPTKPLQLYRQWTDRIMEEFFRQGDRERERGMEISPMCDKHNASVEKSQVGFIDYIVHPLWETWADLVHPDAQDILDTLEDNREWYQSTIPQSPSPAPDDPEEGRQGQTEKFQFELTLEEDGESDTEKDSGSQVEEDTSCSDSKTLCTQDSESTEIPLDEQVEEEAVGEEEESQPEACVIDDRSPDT
Sequence of Vascular endothelial growth factor receptor 2 (P35968 whole entry): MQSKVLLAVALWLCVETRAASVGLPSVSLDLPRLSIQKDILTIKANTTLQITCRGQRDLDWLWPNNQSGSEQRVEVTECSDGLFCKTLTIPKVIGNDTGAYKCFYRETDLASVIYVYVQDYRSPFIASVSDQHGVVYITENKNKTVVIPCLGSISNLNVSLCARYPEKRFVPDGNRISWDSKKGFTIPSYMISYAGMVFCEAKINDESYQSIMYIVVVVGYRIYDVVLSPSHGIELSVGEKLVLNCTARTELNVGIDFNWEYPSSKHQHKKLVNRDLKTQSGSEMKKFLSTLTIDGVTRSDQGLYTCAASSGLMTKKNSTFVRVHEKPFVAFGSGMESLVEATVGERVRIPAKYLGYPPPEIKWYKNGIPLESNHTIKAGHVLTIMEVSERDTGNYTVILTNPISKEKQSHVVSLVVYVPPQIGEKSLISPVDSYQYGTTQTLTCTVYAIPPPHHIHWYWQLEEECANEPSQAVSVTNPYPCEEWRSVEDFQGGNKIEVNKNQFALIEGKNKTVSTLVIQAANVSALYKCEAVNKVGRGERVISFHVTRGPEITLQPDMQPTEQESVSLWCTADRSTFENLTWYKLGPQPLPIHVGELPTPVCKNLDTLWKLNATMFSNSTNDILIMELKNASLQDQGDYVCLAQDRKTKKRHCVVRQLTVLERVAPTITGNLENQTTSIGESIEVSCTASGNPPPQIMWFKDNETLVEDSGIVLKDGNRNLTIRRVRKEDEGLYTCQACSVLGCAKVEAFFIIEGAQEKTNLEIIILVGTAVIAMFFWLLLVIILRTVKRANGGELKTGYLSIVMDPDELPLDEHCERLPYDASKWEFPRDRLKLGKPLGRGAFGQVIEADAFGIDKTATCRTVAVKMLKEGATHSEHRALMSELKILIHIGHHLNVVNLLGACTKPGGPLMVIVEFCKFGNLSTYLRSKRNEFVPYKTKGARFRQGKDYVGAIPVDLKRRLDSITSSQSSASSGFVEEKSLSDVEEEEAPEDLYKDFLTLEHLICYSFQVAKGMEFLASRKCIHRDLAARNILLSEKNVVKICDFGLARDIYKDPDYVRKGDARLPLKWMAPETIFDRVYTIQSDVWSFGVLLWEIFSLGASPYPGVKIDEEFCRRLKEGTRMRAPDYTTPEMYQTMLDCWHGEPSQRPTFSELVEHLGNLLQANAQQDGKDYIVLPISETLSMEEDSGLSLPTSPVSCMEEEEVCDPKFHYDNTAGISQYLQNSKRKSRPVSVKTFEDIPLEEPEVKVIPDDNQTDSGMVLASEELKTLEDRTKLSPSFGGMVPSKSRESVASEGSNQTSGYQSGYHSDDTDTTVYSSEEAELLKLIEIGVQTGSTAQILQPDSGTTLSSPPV

Compound	AC50 [1]	AC50 [2]	AC50 [3]	AC50 (Adenosine receptor A2a)	AC50 [4]	AC50 [5]	AC50 [6]	AC50 (Thromboxane A2 receptor)	AC50 [7]	AC50 [8]	AC50 (Motilin receptor)	AC50 (D(3) dopamine receptor)	AC50 [9]
COCCOc1cnc(NS(=O)(=O)c2ccccc2)nc1 [GLYMIDINE]	> 30 µM	–	–	–	–	–	–	–	–	–	–	–	–
CC(C1=C(CCN(C)C)Cc2ccccc21)c1ccccn1 (centres undefined)	> 30 µM	–	–	–	–	–	–	–	–	–	–	–	–
CC(=O)OCC[N+](C)(C)C [ACETYLCHOLINE]	–	> 10 µM	> 10 µM	> 30 µM	> 30 µM	> 10 µM	0.15 µM	> 30 µM	> 30 µM	> 30 µM	> 30 µM	> 30 µM	> 10 µM
CN(C)c1cc(NC(=O)CNC(C)(C)C)c(O)c2c1C[C@H]1C[C@H]3[C@H](N(C)C)C(O)=C(C(N)=O)C(=O)[C@@]3(O)C(O)=C1C2=O [TIGECYCLINE]	–	> 30 µM	> 30 µM	> 30 µM	> 30 µM	> 30 µM	> 30 µM	> 30 µM	> 30 µM	> 30 µM	> 30 µM	> 30 µM	> 30 µM
COCCCOc1ccnc(C[S+]([O-])c2nc3ccccc3[nH]2)c1C (centres undefined) [RABEPRAZOLE]	–	6 µM	> 10 µM	> 30 µM	> 30 µM	> 10 µM	> 10 µM	11.4 µM	8 µM	20.5 µM	> 10 µM	> 10 µM	12 µM
NS(=O)(=O)c1cc(C2(O)NC(=O)c3ccccc32)ccc1Cl (centres undefined) [CHLORTHALIDONE]	–	> 30 µM	> 10 µM	> 10 µM	> 10 µM	> 10 µM	> 10 µM	> 10 µM	> 30 µM	> 10 µM	> 10 µM	> 30 µM	> 10 µM
COc1ccc2c(c1)[C@]13CCCC[C@@H]1[C@H](C2)N(C)CC3 [DEXTROMETHORPHAN]	–	> 10 µM	> 10 µM	> 30 µM	> 30 µM	11 µM	> 10 µM	> 30 µM	> 30 µM	> 30 µM	> 10 µM	> 30 µM	> 10 µM
O=C(O)CSCC(=O)NC1CCSC1=O (centres undefined) [ERDOSTEINE]	–	> 30 µM	> 30 µM	> 30 µM	> 30 µM	> 30 µM	> 30 µM	> 30 µM	> 30 µM	> 30 µM	> 30 µM	> 30 µM	> 30 µM

From ChEMBL document CHEMBL5291721, “A preclinical secondary pharmacology resource illuminates target-adverse drug reaction associations of marketed drugs” (Nat Commun, 2023)
